Test results as given in patent US20260000656A1, “ANTIFUNGAL AGENTS WITH ENHANCED ACTIVITY IN ACIDIC PH” (Scynexis, Inc., priority 2017, published 2026).
Where two headings read alike, the source gives them in different places. Numbered stars: 1 amine (or outer) side, 2 acyl side, 3 side chain; on linkers, the order of the positions; unused ones are H or OH. Bridge positions count the residues as written; N and C are the ends. Square brackets hold non-standard residues; d marks the D form. Peptide text beside a SMILES is read from it. * marks the point of attachment. hTyr(3S-OH,4S-OH,3'-OSO3H) = N[C@H](C(=O)O)[C@H](O)[C@@H](O)c1ccc(O)c(OS(=O)(=O)O)c1; Orn(4R-OH,5R-OH) = O=C([C@H](C[C@@H](O)[C@@H](O)N[*:3])N[*:1])[*:2]; Pro(3S-OH,4S-Me) = C[C@H]1CN[C@H](C(=O)O)[C@H]1O; X1 = CCCCCOc1ccc(-c2cc(-c3ccc(C(=O)*)cc3)no2)cc1; Gln(3R-OH) = NC(=O)C[C@@H](O)[C@H](N)C(=O)O; Hyp = O=C(O)[C@@H]1C[C@@H](O)CN1

What was measured:
C. albicans isolates = test: Broth microdilution susceptibility (CLSI M27-A3) at different medium pH; format: cell-based, Candida albicans; settings: for MIC range: 50% inhibition, 10 vaginal isolates; for MIC50 / MIC90 / MIC: Candida albicans, 24 h
Experimental: (§1) Ten strains each of C. glabrata and C. albicans vaginal isolates were tested. The strains were obtained from recent clinical trial patients with vulvovaginal candidiasis (VVC) prior to treatment. Candida strains were obtained from the Mycology Reference Library (MRL) at Case Western Reserve University School of Medicine, Ohio, United States.
(§2) Susceptibility testing was performed using a broth microdilution method, according to CLSI M27-A3 guidelines (CLSI. 2008. Reference Method for Broth Dilution Antifungal Susceptibility Testing of Yeasts; Approved Standard—Third Edition. Clinical and Laboratory Standards Institute, CLSI document M27-A3). Antifungals and concentrations tested were SCY-078 and micafungin (both at concentrations within the range of 0.015 to 8 μg/ml) and fluconazole (at concentrations within the range of 0.125 to 64 μg/ml). A 0.1-ml C. albicans and C. glabrata inoculum of 0.5-2.5×10^3 blastospores/ml in RPMI 1640 medium was added to each microdilution well. ATCC strains of Candida parapsilosis and Candida krusei QC isolates were also included concurrently to ensure quality control. Antifungal susceptibility testing was carried out for each isolate in RPMI 1640 at pH 7 (to mimic RPMI medium used in testing the susceptibility of yeast by the CLSI M-27A3 document), pH 5.7, and pH 4.5 (to mimic the pH of the vaginal cavity) by adjusting the pH of the media using NaOH or HCl. […] Agents Chemother., 43: 1383-1386 (1999).
(§3) […] SCY-078 powder was manufactured by Avista, Laboratories, NC. Micafungin and fluconazole were sourced from LGM Pharma.

C. glabrata isolates = test: as above; format: cell-based, Candida glabrata; settings: for MIC range: 50% inhibition, 10 vaginal isolates; for MIC50 / MIC90 / MIC: Nakaseomyces glabratus, 24 h
Experimental: as §1, §2, §3

CCCCCOc1ccc(-c2cc(-c3ccc(C(=O)N[C@H]4C[C@@H](O)[C@@H](O)NC(=O)[C@@H]5[C@@H](O)[C@@H](C)CN5C(=O)[C@H]([C@H](O)CC(N)=O)NC(=O)[C@H]([C@H](O)[C@@H](O)c5ccc(O)c(OS(=O)(=O)O)c5)NC(=O)[C@@H]5C[C@@H](O)CN5C(=O)[C@H]([C@@H](C)O)NC4=O)cc3)no2)cc1 [Micafungin, reference compound] (X1-[Orn(4R-OH,5R-OH)]T[Hyp][hTyr(3S-OH,4S-OH,3'-OSO3H)][Gln(3R-OH)][Pro(3S-OH,4S-Me)]; lactam 1-C)
1 µg/mL: MIC50 (C. albicans isolates; pH 5.72) | MIC90 (C. albicans isolates; pH 5.72) | MIC (C. albicans isolates; pH 5.72, read-out: MIC (50% inhibition), C. albicans MRL 34372, pH 5.72, 24 hours) | MIC (C. albicans isolates; pH 5.72, read-out: MIC (50% inhibition), C. albicans MRL 34373, pH 5.72, 24 hours) | MIC (C. albicans isolates; pH 5.72, read-out: MIC (50% inhibition), C. albicans MRL 34374, pH 5.72, 24 hours) | MIC (C. albicans isolates; pH 5.72, read-out: MIC (50% inhibition), C. albicans MRL 34385, pH 5.72, 24 hours) | MIC (C. albicans isolates; pH 5.72, read-out: MIC (50% inhibition), C. albicans MRL 34389, pH 5.72, 24 hours) | MIC (C. albicans isolates; pH 5.72, read-out: MIC (50% inhibition), C. albicans MRL 34399, pH 5.72, 24 hours)
0.25 to 0.5 µg/mL: MIC range (C. albicans isolates; pH 4.5, 24 h) | MIC range (C. glabrata isolates; pH 7.0, 24 h)
0.063 to 1 µg/mL: MIC range (C. albicans isolates; pH 5.72, 24 h)
0.25 µg/mL: MIC range (C. albicans isolates; pH 7.0, 24 h) | MIC (C. albicans isolates; pH 4.5, read-out: MIC (50% inhibition), C. albicans MRL 34408, pH 4.5, 24 hours) | MIC (C. albicans isolates; pH 5.72, read-out: MIC (50% inhibition), C. albicans MRL 34449, pH 5.72, 24 hours) | MIC50 (C. albicans isolates; pH 7) | MIC90 (C. albicans isolates; pH 7) | MIC (C. albicans isolates; pH 7, read-out: MIC (50% inhibition), C. albicans MRL 34366, pH 7.0, 24 hours) | MIC (C. albicans isolates; pH 7, read-out: MIC (50% inhibition), C. albicans MRL 34367, pH 7.0, 24 hours) | MIC (C. albicans isolates; pH 7, read-out: MIC (50% inhibition), C. albicans MRL 34372, pH 7.0, 24 hours) | MIC (C. albicans isolates; pH 7, read-out: MIC (50% inhibition), C. albicans MRL 34373, pH 7.0, 24 hours) | MIC (C. albicans isolates; pH 7, read-out: MIC (50% inhibition), C. albicans MRL 34374, pH 7.0, 24 hours) | MIC (C. albicans isolates; pH 7, read-out: MIC (50% inhibition), C. albicans MRL 34385, pH 7.0, 24 hours) | MIC (C. albicans isolates; pH 7, read-out: MIC (50% inhibition), C. albicans MRL 34389, pH 7.0, 24 hours) | MIC (C. albicans isolates; pH 7, read-out: MIC (50% inhibition), C. albicans MRL 34399, pH 7.0, 24 hours) | MIC (C. albicans isolates; pH 7, read-out: MIC (50% inhibition), C. albicans MRL 34408, pH 7.0, 24 hours) | MIC (C. albicans isolates; pH 7, read-out: MIC (50% inhibition), C. albicans MRL 34449, pH 7.0, 24 hours) | MIC range (C. glabrata isolates; pH 4.5, 24 h) | MIC range (C. glabrata isolates; pH 5.72, 24 h) | MIC50 (C. glabrata isolates; pH 4.5) | MIC90 (C. glabrata isolates; pH 4.5) | MIC (C. glabrata isolates; pH 4.5, read-out: MIC (50% inhibition), C. glabrata MRL 32075, pH 4.5, 24 hours) | MIC (C. glabrata isolates; pH 4.5, read-out: MIC (50% inhibition), C. glabrata MRL 32232, pH 4.5, 24 hours) | MIC (C. glabrata isolates; pH 4.5, read-out: MIC (50% inhibition), C. glabrata MRL 32626, pH 4.5, 24 hours) | MIC (C. glabrata isolates; pH 4.5, read-out: MIC (50% inhibition), C. glabrata MRL 32993, pH 4.5, 24 hours) | MIC (C. glabrata isolates; pH 4.5, read-out: MIC (50% inhibition), C. glabrata MRL 33204, pH 4.5, 24 hours) | MIC (C. glabrata isolates; pH 4.5, read-out: MIC (50% inhibition), C. glabrata MRL 33960, pH 4.5, 24 hours) | MIC (C. glabrata isolates; pH 4.5, read-out: MIC (50% inhibition), C. glabrata MRL 33961, pH 4.5, 24 hours) | MIC (C. glabrata isolates; pH 4.5, read-out: MIC (50% inhibition), C. glabrata MRL 34339, pH 4.5, 24 hours) | MIC (C. glabrata isolates; pH 4.5, read-out: MIC (50% inhibition), C. glabrata MRL 34407, pH 4.5, 24 hours) | MIC (C. glabrata isolates; pH 4.5, read-out: MIC (50% inhibition), C. glabrata MRL 34576, pH 4.5, 24 hours) | MIC50 (C. glabrata isolates; pH 5.72) | MIC90 (C. glabrata isolates; pH 5.72) | MIC (C. glabrata isolates; pH 5.72, read-out: MIC (50% inhibition), C. glabrata MRL 32075, pH 5.72, 24 hours) | MIC (C. glabrata isolates; pH 5.72, read-out: MIC (50% inhibition), C. glabrata MRL 32232, pH 5.72, 24 hours) | MIC (C. glabrata isolates; pH 5.72, read-out: MIC (50% inhibition), C. glabrata MRL 32626, pH 5.72, 24 hours) | MIC (C. glabrata isolates; pH 5.72, read-out: MIC (50% inhibition), C. glabrata MRL 32993, pH 5.72, 24 hours) | MIC (C. glabrata isolates; pH 5.72, read-out: MIC (50% inhibition), C. glabrata MRL 33204, pH 5.72, 24 hours) | MIC (C. glabrata isolates; pH 5.72, read-out: MIC (50% inhibition), C. glabrata MRL 33960, pH 5.72, 24 hours) | MIC (C. glabrata isolates; pH 5.72, read-out: MIC (50% inhibition), C. glabrata MRL 33961, pH 5.72, 24 hours) | MIC (C. glabrata isolates; pH 5.72, read-out: MIC (50% inhibition), C. glabrata MRL 34339, pH 5.72, 24 hours) | MIC (C. glabrata isolates; pH 5.72, read-out: MIC (50% inhibition), C. glabrata MRL 34407, pH 5.72, 24 hours) | MIC (C. glabrata isolates; pH 5.72, read-out: MIC (50% inhibition), C. glabrata MRL 34576, pH 5.72, 24 hours) | MIC50 (C. glabrata isolates; pH 7) | MIC (C. glabrata isolates; pH 7, read-out: MIC (50% inhibition), C. glabrata MRL 32075, pH 7.0, 24 hours) | MIC (C. glabrata isolates; pH 7, read-out: MIC (50% inhibition), C. glabrata MRL 32993, pH 7.0, 24 hours) | MIC (C. glabrata isolates; pH 7, read-out: MIC (50% inhibition), C. glabrata MRL 33204, pH 7.0, 24 hours) | MIC (C. glabrata isolates; pH 7, read-out: MIC (50% inhibition), C. glabrata MRL 33961, pH 7.0, 24 hours) | MIC (C. glabrata isolates; pH 7, read-out: MIC (50% inhibition), C. glabrata MRL 34339, pH 7.0, 24 hours) | MIC (C. glabrata isolates; pH 7, read-out: MIC (50% inhibition), C. glabrata MRL 34407, pH 7.0, 24 hours) | MIC (C. glabrata isolates; pH 7, read-out: MIC (50% inhibition), C. glabrata MRL 34576, pH 7.0, 24 hours)
0.5 µg/mL: MIC50 (C. albicans isolates; pH 4.5) | MIC90 (C. albicans isolates; pH 4.5) | MIC (C. albicans isolates; pH 4.5, read-out: MIC (50% inhibition), C. albicans MRL 34366, pH 4.5, 24 hours) | MIC (C. albicans isolates; pH 4.5, read-out: MIC (50% inhibition), C. albicans MRL 34367, pH 4.5, 24 hours) | MIC (C. albicans isolates; pH 4.5, read-out: MIC (50% inhibition), C. albicans MRL 34372, pH 4.5, 24 hours) | MIC (C. albicans isolates; pH 4.5, read-out: MIC (50% inhibition), C. albicans MRL 34373, pH 4.5, 24 hours) | MIC (C. albicans isolates; pH 4.5, read-out: MIC (50% inhibition), C. albicans MRL 34374, pH 4.5, 24 hours) | MIC (C. albicans isolates; pH 4.5, read-out: MIC (50% inhibition), C. albicans MRL 34385, pH 4.5, 24 hours) | MIC (C. albicans isolates; pH 4.5, read-out: MIC (50% inhibition), C. albicans MRL 34389, pH 4.5, 24 hours) | MIC (C. albicans isolates; pH 4.5, read-out: MIC (50% inhibition), C. albicans MRL 34399, pH 4.5, 24 hours) | MIC (C. albicans isolates; pH 4.5, read-out: MIC (50% inhibition), C. albicans MRL 34449, pH 4.5, 24 hours) | MIC (C. albicans isolates; pH 5.72, read-out: MIC (50% inhibition), C. albicans MRL 34366, pH 5.72, 24 hours) | MIC (C. albicans isolates; pH 5.72, read-out: MIC (50% inhibition), C. albicans MRL 34367, pH 5.72, 24 hours) | MIC90 (C. glabrata isolates; pH 7) | MIC (C. glabrata isolates; pH 7, read-out: MIC (50% inhibition), C. glabrata MRL 32232, pH 7.0, 24 hours) | MIC (C. glabrata isolates; pH 7, read-out: MIC (50% inhibition), C. glabrata MRL 32626, pH 7.0, 24 hours) | MIC (C. glabrata isolates; pH 7, read-out: MIC (50% inhibition), C. glabrata MRL 33960, pH 7.0, 24 hours)
0.063 µg/mL: MIC (C. albicans isolates; pH 5.72, read-out: MIC (50% inhibition), C. albicans MRL 34408, pH 5.72, 24 hours)
